{"source": "patent US20260166084A1", "about": "“NOVEL DRUG-INDUCIBLE DEGRADATION TAGS” (THE INSTITUTE OF CANCER RESEARCH: ROYAL CANCER HOSPITAL, priority 2022, published 2026)", "key": {"[1]": {"system": "iTAG2 and DCD23-tagged chimeric antigen receptor (TE9-28-Z)", "assay": "IMiD induced degradation of tagged CAR in transduced Jurkat cells", "assay_type": "cell-based, human", "details": "for time of drug treatment at which maximal reduction of surface expression is detectable: lenalidomide, pomalidomide, iberdomide", "protocol": "(§1) CAR expression in PBMC-derived T cells following degradation with 10, 1, 0.1, 0.01, 0.001 or 0 uM iberdomide after 24 hours, was assessed by flow cytometry. To assess CAR functionality+/−degrader tag, transduced T cells were cultured 24 hours with SUPT1+/−B7H3 at a 1:1 ratio. Supernatant was harvested, and IL-2 and IFNγ levels determined by ELISA.\n(§2) CAR surface expression for transduction efficiency and degradation experiments in primary cells and cell lines was quantified using his-tagged B7H3 protein in combination with anti his-tagged fluorescent antibody (J095G45, BioLegend), and directly fluorescently labelled anti CD34 antibody (QBEnd10, R&D), using LSR2 cytometer. Analysis used Flo-Jo software."}, "TE9-28-Z CAR": {"system": "TE9-28-Z CAR", "assay": "IMiD induced degradation and re-expression of tagged CAR in primary human T cells", "assay_type": "cell-based", "text": "The re-expression of degraded chimeric antigen receptors following removal of the degrader drug is important for the CAR-T cell to be able to toggle between active and resting states, thereby allowing additional therapeutic manipulation and fine-tuning.\nTo evaluate the general functionality of the TE9-28Z-iTAG2 anti-B7H3 CAR-T construct when expressed from a different viral vector, driven by alternate promoter, the construct was cloned into third generation lentivector pCLL2 backbone and viral supernatant was generated by transient transfection of 293T cells, with virus pseudotyped with VSV-G. Two versions of the TE9-28Z-iTAG2 sequence were evaluated in this format, which were with and without codon optimisation and removal of cloning scars. There are no differences in amino acid sequence of iTAG2 between original (construct 3) and codon optimised (construct 4) versions (FIG. 16 a and b). […] The log reduction in CAR expression as expressed as geometric median fluorescence intensity (gMFI) was highly consistent. […]\nPBMC-derived T cells from 2 healthy donor blood cones were cultured following CD56 depletion (day0) which was performed using Miltenyi CD56 depletion beads and magnetic negative selection using LD columns according to manufacturer's instructions. […] Transduction efficiency was assessed 4 days post transduction by flow cytometry staining for RQR8 and CAR expression.\nCAR expression in PBMC-derived T cells following degradation with 10, 1, 0.1, 0.01, 0.001 or 0 uM iberdomide after 24 hours, was assessed by flow cytometry. […] Supernatant was harvested, and IL-2 and IFNγ levels determined by ELISA.\nas §2, with “Analysis used Flo-Jo software.” left out"}, "[2]": {"target": "T1, complexes formed between CRBN/DDB1 and IMiDs (Homo sapiens, UniProt Q96SW2)", "T1 construct": "5 nM WT full length CRBN/DDB1 complex; made in house", "T1 sequence (Q96SW2 whole entry)": "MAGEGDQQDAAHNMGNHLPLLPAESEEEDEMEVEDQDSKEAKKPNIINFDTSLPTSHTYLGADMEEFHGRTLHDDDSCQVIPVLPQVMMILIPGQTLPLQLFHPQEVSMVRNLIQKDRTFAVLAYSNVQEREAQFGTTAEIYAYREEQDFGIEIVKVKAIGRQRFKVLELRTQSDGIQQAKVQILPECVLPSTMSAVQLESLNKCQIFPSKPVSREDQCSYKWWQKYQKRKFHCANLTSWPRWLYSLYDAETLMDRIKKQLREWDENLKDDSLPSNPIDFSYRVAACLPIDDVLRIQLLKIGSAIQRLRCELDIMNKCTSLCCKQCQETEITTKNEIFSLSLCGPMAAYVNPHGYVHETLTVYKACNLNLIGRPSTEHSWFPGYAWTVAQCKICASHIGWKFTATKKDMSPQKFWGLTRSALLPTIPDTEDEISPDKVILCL", "T1 sequence (Q16531 whole entry partner)": "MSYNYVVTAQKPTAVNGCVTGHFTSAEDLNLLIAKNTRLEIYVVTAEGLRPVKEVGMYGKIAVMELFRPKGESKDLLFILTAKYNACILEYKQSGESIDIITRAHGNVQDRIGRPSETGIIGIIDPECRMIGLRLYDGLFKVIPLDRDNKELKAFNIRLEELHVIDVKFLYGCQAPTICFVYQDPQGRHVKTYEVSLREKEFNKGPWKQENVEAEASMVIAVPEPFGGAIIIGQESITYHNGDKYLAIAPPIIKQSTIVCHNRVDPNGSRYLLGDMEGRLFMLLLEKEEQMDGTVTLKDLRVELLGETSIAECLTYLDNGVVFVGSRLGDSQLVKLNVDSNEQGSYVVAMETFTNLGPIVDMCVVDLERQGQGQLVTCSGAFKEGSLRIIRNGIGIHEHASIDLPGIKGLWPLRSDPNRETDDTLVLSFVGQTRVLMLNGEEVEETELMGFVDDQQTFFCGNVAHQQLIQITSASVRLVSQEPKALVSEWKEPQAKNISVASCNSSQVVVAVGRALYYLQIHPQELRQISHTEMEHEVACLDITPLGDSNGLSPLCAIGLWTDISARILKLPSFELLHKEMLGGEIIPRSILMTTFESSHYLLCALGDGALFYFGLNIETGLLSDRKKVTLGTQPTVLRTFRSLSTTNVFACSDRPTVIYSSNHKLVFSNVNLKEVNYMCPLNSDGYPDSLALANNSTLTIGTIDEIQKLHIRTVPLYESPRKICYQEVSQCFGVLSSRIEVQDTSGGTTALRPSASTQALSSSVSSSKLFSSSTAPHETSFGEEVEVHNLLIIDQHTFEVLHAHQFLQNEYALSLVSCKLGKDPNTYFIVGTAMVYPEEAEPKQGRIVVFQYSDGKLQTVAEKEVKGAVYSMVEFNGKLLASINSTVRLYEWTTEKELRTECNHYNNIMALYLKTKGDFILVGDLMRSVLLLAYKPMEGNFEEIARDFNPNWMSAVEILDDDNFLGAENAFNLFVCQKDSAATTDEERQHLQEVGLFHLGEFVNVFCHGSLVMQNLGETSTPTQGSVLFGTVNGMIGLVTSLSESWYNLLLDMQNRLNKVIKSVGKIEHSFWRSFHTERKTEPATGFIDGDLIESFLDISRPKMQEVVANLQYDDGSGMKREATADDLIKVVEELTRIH", "assay": "Aiolos peptide-based TR-FRET assay", "assay_type": "binding", "details": "IMiDs at 10 μM", "protocol": "A schematic representation of the Aiolos peptide-based time resolved-Förster resonance energy transfer (TR-FRET) assay is presented in FIG. 11. […] The results are presented in FIG. 12, including the IC50s calculated from the TR-FRET curves. Overall, the IC50s obtained for iTAG2 were higher than those obtained for iTAG1 with about a 10-fold difference.\nAll TR-FRET assays were ran in Black 384-well ProxiPlate Plus (Perkin-Elmer, USA), in a buffer containing 20 mM HEPES pH 8.0, 150 mM NaCl, 0.5 mM TCEP, 0.05% Tween 20 and 0.05% BSA, with a final assay volume of 10 μL. An Echo E550 (Beckman Coulter, USA) acoustic liquid dispenser was used to create final concentration ranges from 82 μM down to 2.05 nM for iTAG1 and 27 μM down to 0.68 nM for iTAG2. Final concentrations of 5 nM WT full length CRBN/DDB1 complex, 750 nM Sulfo-Cy5 fluorescent Aiolos-based peptidic probe (Cambridge Research Biochemicals, UK), 750 nM Zn(OAc)^2 and 0.5 nM MAb Anti-6HIS-Terbium cryptate Gold (Cisbio, France) were added with a Tempest liquid handler (Formulatrix, USA). Finally, IMiDs were added to a final concentration of 10 μM with the Echo. Plates were sealed, centrifuged at 200 g for 1 min and stored overnight at 4° C. The TR-FRET signals were read using a PHERAstar FSX plate reader (BMG Labtech, Germany). Final signal was measured as the ratio: […]"}, "HMEC cells": {"system": "HMEC cells", "assay": "Nuclear localisation by immunofluorescence in HMEC", "assay_type": "cell-based, human", "details": "fluorescence microscopy, FIG. 3b and 13", "protocol": "To determine localisation of “superdegron” which has a degree of homology with iTAG1, the inventors cloned superdegron into the expression vector to replace iTAG1 as the degron fused with GFP.\nHMEC cells were seeded in glass bottom 96-well plates (Perkin Elmer) at a 1000 cells/well and treated with 1 μg/ml DOX for 24 h to induce construct. Cells were fixed using 4% paraformaldehyde in PBS solution for 15 min at 37° C. and permeabilised with 0.05% Titon-X-100 detergent for 10 min at room temperature. Prior to proceeding to cell imaging, the cells were incubated for a min with 1 μg/ml DAPI (ThermoFisher Scientific) to stain the cell nuclei. Cells were visualised on the Zeiss Axio Vert.A1 FL-LED inverted epifluorescence microscope (Zeiss) and images were captured using the ZEN Blue software (Zeiss)."}, "[3]": {"system": "anti-B7H3 chimeric antigen receptor (TE9)", "assay": "Cell surface expression of tagged CAR in transduced Jurkat and 293T cells by flow cytometry", "assay_type": "cell-based, human", "details": "for surface expression of tagged CARs: transduced Jurkat cells, 41BB and CD28 versions of TE9 CAR, FIG. 10; for cell surface expression of tagged CAR relative to CD34 marker: transduced 293T and Jurkat cells, FIG. 6", "protocol": "Initial experiments evaluated expression and degradation in human Jurat T cell leukaemia cells or human 293T cells, which were stably transduced with untagged, iTAG1(DCD23)-tagged, and iTAG2-tagged anti-B7H3 CAR-T cells. Here the relative expression of the CAR and the CD34 marker gene are determined by direct staining and evaluation by flow cytometry.\nJurkat and 293T cell lines were grown in DMEM with 10% fetal calf serum and transduced with constructs containing CAR+/−degrader tag. Transduction efficiency was analysed 72 hours post transduction by flow cytometry, staining for the CD34 epitope encoded by the RQR8 gene.\nas §2"}, "[4]": {"system": "degron containing domains (DCDs)", "assay": "Degradation matrix of DCD tags with IMiD/CELMoD panel by flow cytometry", "assay_type": "cell-based", "details": "panel of IMiD/CELMoD small molecules, FIG. 1", "text": "FIG. 1: Experimental evaluation of the DCD tags. (a) Heat map summary of the degradation matrix data of all the DCDs tested in flow cytometry experiments. Normalized values were represented in the Log 2 Fold Change relative to the DMSO control. […] (b) Representation of iTAG1-DCD23 (60 aa). The 2 Cys and 2 His from the C2H2 zinc finger motif are highlighted in light grey. The crucial Glycine in the b-hairpin loop degron is highlighted in bold dark grey.\nTo address the limitations of the currently available protein modulation tools, the inventors developed a novel and robust system for targeted protein degradation by exploiting the fusion of an IMiD/CeLMOD recognition sequence to a protein of interest. […] This 60 amino acid sequence is referred to as iTAG1 (DCD23) herein.\nConstruct expression was induced by treating cells with 1 μg/ml DOX for 24 h. The cells were treated with IMiDs/CELMoDs at concentrations and time-points indicated for each experimental setting. Cells were collected, on ice, in sterile 5 ml polystyrene round-bottom tubes. DAPI (4′,6-diamidino-2-phenylindole; ThermoFisher Scientific) was added to the cell suspension at a ratio of 1:1000, as a marker for cell viability. The EGFP signal was measured on the BD LSR II flow cytometer (BD Biosciences). Further processing of the results was performed using FlowJo 10 Software (FlowJo)."}, "[5]": {"system": "SupT1 cells transduced to express human B7H3", "assay": "CAR functionality: cytokine ELISA after co-culture with SupT1-B7H3 targets", "assay_type": "cell-based", "details": "primary human T cells", "text": "To evaluate whether the brighter CAR expression of iTAG2 tagged CAR compared with DCD23-tagged CAR translated into greater effector function, the respective CAR-T populations from the two independent donors were co-cultured overnight with human SupT1 leukaemia target cells isogenic for the target antigen B7H3. Wild type SupT1 have no detectable B7H3 expression. Following overnight culture of T cells with the targets, culture supernatant was harvested and evaluated for inflammatory cytokines interferon gamma and Interleukin-2 by ELISA (FIG. 9).\nas §1"}, "CRBN/DDB1 complex": {"target": "T2, CRBN/DDB1 complex (Homo sapiens, UniProt Q96SW2)", "T2 construct": "made in house", "T2 sequence (Q96SW2 whole entry, one chain of several)": "as the sequence (Q96SW2 whole entry) above", "T2 sequence (Q16531 2-1140 partner, one chain of several)": "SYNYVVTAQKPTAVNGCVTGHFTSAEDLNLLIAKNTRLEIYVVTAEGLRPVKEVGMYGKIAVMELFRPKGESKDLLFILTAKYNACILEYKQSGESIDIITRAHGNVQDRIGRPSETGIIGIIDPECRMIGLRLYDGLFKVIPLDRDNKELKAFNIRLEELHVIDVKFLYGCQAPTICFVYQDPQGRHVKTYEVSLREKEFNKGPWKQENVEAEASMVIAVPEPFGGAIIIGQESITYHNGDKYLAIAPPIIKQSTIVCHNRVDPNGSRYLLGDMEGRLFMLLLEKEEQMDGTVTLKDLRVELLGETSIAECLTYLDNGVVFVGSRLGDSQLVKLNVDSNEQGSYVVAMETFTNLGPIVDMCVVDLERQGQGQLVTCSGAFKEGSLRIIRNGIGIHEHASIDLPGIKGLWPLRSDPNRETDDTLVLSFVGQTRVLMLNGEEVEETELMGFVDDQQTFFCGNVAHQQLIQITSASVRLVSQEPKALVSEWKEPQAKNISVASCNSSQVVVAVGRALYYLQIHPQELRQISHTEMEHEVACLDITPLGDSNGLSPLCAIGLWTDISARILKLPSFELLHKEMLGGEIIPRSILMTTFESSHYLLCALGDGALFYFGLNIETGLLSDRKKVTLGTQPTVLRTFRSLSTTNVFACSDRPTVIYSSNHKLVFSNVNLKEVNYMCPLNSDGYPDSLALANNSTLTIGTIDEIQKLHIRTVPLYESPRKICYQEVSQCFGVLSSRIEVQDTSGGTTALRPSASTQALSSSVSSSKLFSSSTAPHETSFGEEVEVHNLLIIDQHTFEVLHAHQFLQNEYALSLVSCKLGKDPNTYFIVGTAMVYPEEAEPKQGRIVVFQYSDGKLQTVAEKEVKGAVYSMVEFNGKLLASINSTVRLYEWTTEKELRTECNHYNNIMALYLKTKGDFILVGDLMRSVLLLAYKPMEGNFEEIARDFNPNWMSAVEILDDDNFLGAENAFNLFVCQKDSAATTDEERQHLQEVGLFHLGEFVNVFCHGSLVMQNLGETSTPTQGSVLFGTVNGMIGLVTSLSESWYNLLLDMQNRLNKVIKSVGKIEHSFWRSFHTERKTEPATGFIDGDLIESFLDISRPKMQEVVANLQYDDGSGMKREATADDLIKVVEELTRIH", "assay": "Size exclusion chromatography of CRBN/DDB1 and iTAG2 with or without iberdomide", "assay_type": "binding", "details": "15 μM CRBN/DDB1, 50 μM iTAG2, 100 μM iberdomide, FIG. 14", "text": "Biochemical evidence for IMiD-dependent formation of a direct interaction between iTAG2 and the CRBN/DDB1 complex was generated using size exclusion chromatography (SEC). Purified CRBN/DDB1 protein complex and iTAG2 protein were mixed together and subjected to SEC in the presence or absence of iberdomide, shown in FIG. 14. The SEC peak 1 corresponding to the higher molecular weight species was shifted towards a lower elution time in the presence of iberdomide, with a slight increase in the optical density at 280 nm, which is consistent with the formation of a larger complex in the presence of iberdomide (FIG. 14A). SDS-PAGE analysis of representative fractions of the SEC analysis in the absence of iberdomide confirmed that the SEC peak 1 contains only DDB1 and CRBN proteins, with iTAG2 only present in the SEC peak 2 (FIG. 14B).\nSEC was performed using a Superose 6 5/150 GL column (Cytiva Life Sciences) mounted on an Agilent 1260 Infinity II LC System HPLC system. […] 100 μL fractions were collected and samples spanning the elution peaks were analysed by SDS-PAGE on precast NuPAGE 4-12% Bis-Tris gels (Invitrogen) using standard protocols, with SeeBlue Plus2 pre-stained protein standards (Invitrogen) loaded on the first lane of each gel."}, "[6]": {"details": "1:1 with SupT1-B7H3, overnight, ELISA, FIG. 9"}}, "note": "Entries after “also recorded” stand apart in the source; their conditions may differ."}
{"compound": "O=C1CC[C@H](N2Cc3c(OCc4ccc(CN5CCOCC5)cc4)cccc3C2=O)C(=O)N1", "note": "[Iberdomide/ CC220, Iberdomide]", "values": [{"measurement": "drug concentration at which nearly maximal downregulation is observed", "setting": "[1]; iTAG1(DCD23) and iTAG2 tagged CAR, FIG. 7", "value": 0.01, "unit": "µM"}, {"measurement": "potency for degradation among lenalidomide, pomalidomide and iberdomide", "setting": "[1]; tagged CAR, FIG. 7", "value": "highest potency"}, {"measurement": "optimal IMiD concentration to mediate CAR downregulation upon treatment and re-upregulation upon withdrawal", "setting": "TE9-28-Z CAR; TE9-iTAG2 CAR-T, overnight treatment, wash, 24 h rest, FIG. 15", "value": 0.01, "unit": "µM"}, {"measurement": "CAR expression after drug treatment", "setting": "TE9-28-Z CAR; primary human T cells, 10 uM iberdomide for 24 hours, FIG. 8", "value": "near complete loss of expression of the brightly expressed CAR population"}, {"measurement": "relative affinity of iTAG1 and iTAG2 for CRBN/DDB1-IMiD complex, order of IMiDs", "setting": "[2]", "value": "tightest binding"}]}
{"compound": "SuperDegron: prototypic zinc finger-based 60 amino acid degron, hybrid of ZFP91 and IKZF3 (WO2019089592) (FNVLMVHKRSHTGERPLQCEICGFTCRQKGNLLRHIKLHTGEKPFKCHLCNYACQRRDAL; SuperDegron) [reference compound]", "values": [{"measurement": "nuclear accumulation / localisation of tagged EGFP/GFP", "setting": "HMEC cells", "value": "strong nuclear localisation"}, {"measurement": "surface expression of tagged CARs", "setting": "[3]", "value": "weak surface expression"}]}
{"compound": "iTAG1: 60 amino acid degron tag based on a chimeric sequence of Ikaros and ZFP91 (PNVLMVHKRSHTGERPLQCEICGFTCRQKGNLLRHIKLHSGEKPFKCHLCNYACRRRDAL)", "values": [{"measurement": "drug-induced degradation of DCD tag", "setting": "[4]", "value": "induces acute target degradation in vitro and in vivo"}, {"measurement": "nuclear accumulation / localisation of tagged EGFP/GFP", "setting": "HMEC cells", "value": "predominant nuclear localisation"}, {"measurement": "cell surface expression of tagged CAR relative to CD34 marker", "setting": "[3]", "value": "relatively poor cell surface expression"}, {"measurement": "surface expression of tagged CARs", "setting": "[3]", "value": "weak surface expression"}, {"measurement": "time of drug treatment at which maximal reduction of surface expression is detectable", "setting": "[1]", "value": 4, "unit": "h"}, {"measurement": "reduced IL-2 secretion compared with iTAG2 fusion protein", "setting": "[5]; [6]", "value": "approximately 30 fold"}, {"measurement": "reduced effector function compared with iTAG2 fusion protein, interferon gamma secretion", "setting": "[5]; [6]", "value": "approximately 5 fold"}]}
{"compound": "iTAG2: mutated iTAG1 degron tag, SEQ ID NO: 43, PNVLMVHNESHTGEIPLQCEICGFTCEQAGNLLNHIELHSGEIPFKCHLCNYACRRRDAL (iTAG2)", "values": [{"measurement": "nuclear accumulation / localisation of tagged EGFP/GFP", "setting": "HMEC cells", "value": "abolished nuclear accumulation; also recorded: cytoplasmic localisation"}, {"measurement": "cell surface expression of tagged CAR relative to CD34 marker", "setting": "[3]", "value": "superior cell surface expression"}, {"measurement": "surface expression of tagged CARs", "setting": "[3]", "value": "same expression as wild type"}, {"measurement": "time of drug treatment at which maximal reduction of surface expression is detectable", "setting": "[1]", "value": 4, "unit": "h"}, {"measurement": "CAR re-expression after drug washout", "setting": "TE9-28-Z CAR; washed in PBS, rested 24 h in RPMI1640, FIG. 15", "value": "re-upregulated after IMiD washout"}, {"measurement": "antigen-dependent reactivity, superiority over DCD23-tagged CAR-T", "setting": "[5]", "value": "approximately 10 fold"}, {"measurement": "effector function compared with untagged CAR", "setting": "[5]; SupT1-B7H3, FIG. 9", "value": "not significantly different to untagged CAR"}, {"measurement": "complex formation by SEC and SDS-PAGE", "setting": "CRBN/DDB1 complex", "value": "formation of a complex between DDB1, CRBN and iTAG2 in the presence of iberdomide"}]}
